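96-well plates; 48 h exposure; 5 concentrations. Endpoints by linear interpolation between flanking doses. Not reached: highest tested concentration assigned. GI50 is the concentration that inhibits growth by half.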 Calls of active or inactive are those of the source. No stated cut-off is given here; in the data, active = GI50 up to about 1.1 µM and inactive = higher.
What was measured:
Test in all cases: NCI-60 cell line screen, 48 h
SK-MEL-5 = test system: SK-MEL-5
SK-MEL-2 = test system: SK-MEL-2
Malme-3M = test system: Malme-3M
KM-20L2 = test system: KM-20L2
OVCAR-8 = test system: OVCAR-8
786-0 = test system: 786-0
SF-268 = test system: SF-268
CAKI-1 = test system: CAKI-1
LOX IMVI = test system: LOX IMVI
SK-OV-3 = test system: SK-OV-3
A498 = test system: A498
RXF 393 = test system: RXF 393
SF-295 = test system: SF-295
HCT-15 = test system: HCT-15
M14 = test system: M14
HT-29 = test system: HT-29
EKVX = test system: EKVX
MDA-N = test system: MDA-N
Hs-578T = test system: Hs-578T

With O=C(O)/C(=C\c1ccccc1Cl)S(=O)(=O)c1ccccc1 the GI50 (SK-MEL-5) was > 100 µM (inactive), the GI50 (SK-MEL-2) was > 100 µM (inactive) and the GI50 (Malme-3M) was > 100 µM (inactive). The GI50 (KM-20L2) was > 100 µM (inactive), the GI50 (OVCAR-8) was > 100 µM (inactive) and the GI50 (786-0) was > 100 µM (inactive). The GI50 (SF-268) was > 100 µM (inactive), the GI50 (CAKI-1) was > 100 µM (inactive) and the GI50 (LOX IMVI) was > 100 µM (inactive). The GI50 (SK-OV-3) was > 100 µM (inactive), the GI50 (A498) was > 100 µM (inactive) and the GI50 (RXF 393) was > 100 µM (inactive). The GI50 (SF-295) was > 100 µM (inactive), the GI50 (HCT-15) was greater than 100 µM and the GI50 (M14) was > 100 µM (inactive). The GI50 (HT-29) was > 100 µM (inactive).

In the case of O=C(O)/C=C/c1ccc(O)c(O)c1 [CAFFEIC ACID], the GI50 (SK-MEL-5) is reported as > 100 µM (inactive), the GI50 (SK-MEL-2) is reported as > 100 µM (inactive) and the GI50 (Malme-3M) is reported as > 100 µM (inactive). The GI50 (KM-20L2) was > 100 µM (inactive), the GI50 (OVCAR-8) was > 100 µM (inactive) and the GI50 (786-0) was > 100 µM (inactive). The GI50 (SF-268) was > 100 µM (inactive), the GI50 (CAKI-1) was > 100 µM (inactive) and the GI50 (LOX IMVI) was > 100 µM (inactive). For the same compound, the GI50 (SK-OV-3) was > 100 µM (inactive), the GI50 (EKVX) was > 100 µM (inactive) and the GI50 (A498) was > 100 µM (inactive). For the same compound, the GI50 (RXF 393) was > 100 µM (inactive), the GI50 (SF-295) was > 100 µM (inactive) and the GI50 (HCT-15) was greater than 100 µM. The GI50 (M14) was > 100 µM (inactive) and the GI50 (HT-29) was > 100 µM (inactive).

CCOC(=O)NC1C2CC(=O)OC(O2)C1OC(C)=O (stereo unspecified) was tested, and the GI50 (SK-MEL-5) was > 100 µM (inactive), the GI50 (SK-MEL-2) was > 100 µM (inactive) and the GI50 (Malme-3M) was > 100 µM (inactive). The GI50 (KM-20L2) was > 100 µM (inactive), the GI50 (OVCAR-8) was > 100 µM (inactive) and the GI50 (786-0) was > 100 µM (inactive). For the same compound, the GI50 (SF-268) was > 100 µM (inactive), the GI50 (CAKI-1) was > 100 µM (inactive) and the GI50 (LOX IMVI) was > 100 µM (inactive). For the same compound, the GI50 (SK-OV-3) was > 100 µM (inactive), the GI50 (EKVX) was > 100 µM (inactive) and the GI50 (A498) was > 100 µM (inactive). The GI50 (RXF 393) was > 100 µM (inactive), the GI50 (SF-295) was > 100 µM (inactive) and the GI50 (HCT-15) was greater than 100 µM. For the same compound, the GI50 (M14) was > 100 µM (inactive) and the GI50 (HT-29) was > 100 µM (inactive).

With CC(C)(C)OC(=O)N[C@H]1CC2(C=C(Cl)C(=O)C(Cl)=C2)OC1=O the GI50 (SK-MEL-5) was 19.1 µM (inactive), the GI50 (SK-MEL-2) was 19.1 µM (inactive) and the GI50 (Malme-3M) was 11.5 µM (inactive). For the same compound, the GI50 (KM-20L2) was 20.4 µM (inactive), the GI50 (OVCAR-8) was 17.1 µM (inactive) and the GI50 (MDA-N) was 17.1 µM (inactive). For the same compound, the GI50 (786-0) was 14.9 µM (inactive), the GI50 (SF-268) was 17.3 µM (inactive) and the GI50 (CAKI-1) was 13.5 µM (inactive). For the same compound, the GI50 (LOX IMVI) was 13.2 µM (inactive), the GI50 (SK-OV-3) was > 46.5 µM (inactive) and the GI50 (EKVX) was 15.2 µM (inactive). The GI50 (A498) was 4.18 µM (inactive), the GI50 (RXF 393) was 10.1 µM (inactive) and the GI50 (Hs-578T) was 26.4 µM (inactive). For the same compound, the GI50 (SF-295) was 21.9 µM (inactive), the GI50 (HCT-15) was 14.2 µM and the GI50 (M14) was 14.4 µM (inactive). The GI50 (HT-29) was 11.5 µM (inactive).

For CCCCCCCCCCCCCC(=O)O[C@H]1CC[C@H](NC(=O)[C@H](OC)[C@H](O)[C@@H](O)[C@H](O)/C=C/C(C)C)C(=O)N(C)C1 [BENGAMIDE B], the GI50 (SK-MEL-5) was 0.0199 µM (active), the GI50 (SK-MEL-2) was 0.0334 µM (active) and the GI50 (Malme-3M) was 0.0362 µM (active). For the same compound, the GI50 (KM-20L2) was 0.00577 µM (active), the GI50 (OVCAR-8) was 0.00782 µM (active) and the GI50 (786-0) was 0.00457 µM (active). For the same compound, the GI50 (SF-268) was 0.0036 µM (active), the GI50 (CAKI-1) was 0.0216 µM (active) and the GI50 (LOX IMVI) was 0.00216 µM (active). The GI50 (SK-OV-3) was 0.0721 µM (active), the GI50 (EKVX) was 1.08 µM (active) and the GI50 (A498) was > 15 µM (inactive). For the same compound, the GI50 (RXF 393) was 0.0615 µM (active), the GI50 (SF-295) was 0.00675 µM (active) and the GI50 (HCT-15) was 0.028 µM. For the same compound, the GI50 (M14) was 0.0128 µM (active) and the GI50 (HT-29) was 0.00479 µM (active).
